Measured values taken from ChEMBL document CHEMBL3885881, “DrugMatrix”.

Species on record: Rattus norvegicus
Experiment: DrugMatrix - Regimen: Daily Repeat
Format: toxicity, organism-based, Sprague-Dawley
Parameters: regimen Daily Repeat, gender Male, age 6-8 weeks
Settings: in vivo, po, route oral GAVAGE, vehicle .5 % CMC; for BASOPHIL / EOSINOPHIL / ERYTHROCYTE COUNT / HEMATOCRIT / HEMOGLOBIN / LEUKOCYTE COUNT / LYMPHOCYTE / MEAN CORPUSCULAR HEMOGLOBIN / MEAN CORPUSCULAR HEMOGLOBIN CONCENTRATION / MEAN CORPUSCULAR VOLUME / MONOCYTE / NEUTROPHIL / PLATELET COUNT: tissue Blood; for ALANINE AMINOTRANSFERASE / ALBUMIN / ALKALINE PHOSPHATASE / ASPARTATE AMINOTRANSFERASE / BLOOD UREA NITROGEN / CHLORIDE / CHOLESTEROL / CREATINE PHOSPHOKINASE / CREATININE / GLUCOSE / PHOSPHORUS / POTASSIUM / SODIUM / TOTAL BILIRUBIN / TOTAL PROTEIN: tissue Plasma
[1] = 0 mg/kg, 72 h, dose level Control, time 3 day
[2] = 0 mg/kg, 120 h, dose level Control, time 5 day
[3] = 50 mg/kg, 72 h, dose level Low, time 3 day
[4] = 50 mg/kg, 120 h, dose level Low, time 5 day
[5] = 1000 mg/kg, 72 h, dose level High, time 3 day
[6] = 1000 mg/kg, 120 h, dose level High, time 5 day

CC(C)NCC(O)COc1ccc(CC(N)=O)cc1 (stereo not drawn) [ATENOLOL]
BASOPHIL [1]: 0%
EOSINOPHIL [1]: 0.33%
ERYTHROCYTE COUNT [1]: 6.2 x10E6/uL
HEMATOCRIT [1]: 38.08%
HEMOGLOBIN [1]: 14.92 G/DL
LEUKOCYTE COUNT [1]: 11.13 x10E3/uL
LYMPHOCYTE [1]: 76%
MEAN CORPUSCULAR HEMOGLOBIN [1]: 24.1 pg
MEAN CORPUSCULAR HEMOGLOBIN CONCENTRATION [1]: 39.17 G/DL
MEAN CORPUSCULAR VOLUME [1]: 61.48 fL
MONOCYTE [1]: 3.83%
NEUTROPHIL [1]: 19.83%
PLATELET COUNT [1]: 1327.5 x10E3/uL
ALANINE AMINOTRANSFERASE [1]: 40.17 u/L
ALBUMIN [1]: 4.07 G/DL
ALKALINE PHOSPHATASE [1]: 372 u/L
ASPARTATE AMINOTRANSFERASE [1]: 67.17 u/L
BLOOD UREA NITROGEN [1]: 18.83 mg/dL
CHLORIDE [1]: 105.17 MEQ/L
CHOLESTEROL [1]: 78.17 mg/dL
CREATINE PHOSPHOKINASE [1]: 149.17 u/L
CREATININE [1]: 0.57 mg/dL
GLUCOSE [1]: 185.17 mg/dL
PHOSPHORUS [1]: 11.43 mg/dL
POTASSIUM [1]: 6.78 MEQ/L
SODIUM [1]: 152.83 MEQ/L
TOTAL BILIRUBIN [1]: 0.4 mg/dL
TOTAL PROTEIN [1]: 6.87 G/DL
BASOPHIL [2]: 0%
EOSINOPHIL [2]: 0%
ERYTHROCYTE COUNT [2]: 6.05 x10E6/uL
HEMATOCRIT [2]: 36.55%
HEMOGLOBIN [2]: 14.7 G/DL
LEUKOCYTE COUNT [2]: 11.8 x10E3/uL
LYMPHOCYTE [2]: 86.83%
MEAN CORPUSCULAR HEMOGLOBIN [2]: 24.37 pg
MEAN CORPUSCULAR HEMOGLOBIN CONCENTRATION [2]: 40.32 G/DL
MEAN CORPUSCULAR VOLUME [2]: 60.47 fL
MONOCYTE [2]: 0.83%
NEUTROPHIL [2]: 12.33%
PLATELET COUNT [2]: 1177 x10E3/uL
ALANINE AMINOTRANSFERASE [2]: 41.83 u/L
ALBUMIN [2]: 3.75 G/DL
ALKALINE PHOSPHATASE [2]: 377.5 u/L
ASPARTATE AMINOTRANSFERASE [2]: 60.83 u/L
BLOOD UREA NITROGEN [2]: 16 mg/dL
CHLORIDE [2]: 105.67 MEQ/L
CHOLESTEROL [2]: 67.83 mg/dL
CREATINE PHOSPHOKINASE [2]: 120.33 u/L
CREATININE [2]: 0.6 mg/dL
GLUCOSE [2]: 167.67 mg/dL
PHOSPHORUS [2]: 10.03 mg/dL
POTASSIUM [2]: 6.68 MEQ/L
SODIUM [2]: 150.5 MEQ/L
TOTAL BILIRUBIN [2]: 0.57 mg/dL
TOTAL PROTEIN [2]: 6.25 G/DL
BASOPHIL [3]: 0%
EOSINOPHIL [3]: 0%
ERYTHROCYTE COUNT [3]: 5.54 x10E6/uL
HEMATOCRIT [3]: 35.3%
HEMOGLOBIN [3]: 13.9 G/DL
LEUKOCYTE COUNT [3]: 9.75 x10E3/uL
LYMPHOCYTE [3]: 86%
MEAN CORPUSCULAR HEMOGLOBIN [3]: 25.1 pg
MEAN CORPUSCULAR HEMOGLOBIN CONCENTRATION [3]: 39.35 G/DL
MEAN CORPUSCULAR VOLUME [3]: 63.75 fL
MONOCYTE [3]: 1%
NEUTROPHIL [3]: 13%
PLATELET COUNT [3]: 1258 x10E3/uL
ALANINE AMINOTRANSFERASE [3]: 34.5 u/L
ALBUMIN [3]: 3.75 G/DL
ALKALINE PHOSPHATASE [3]: 332 u/L
ASPARTATE AMINOTRANSFERASE [3]: 57 u/L
BLOOD UREA NITROGEN [3]: 18 mg/dL
CHLORIDE [3]: 106 MEQ/L
CHOLESTEROL [3]: 83 mg/dL
CREATINE PHOSPHOKINASE [3]: 110 u/L
CREATININE [3]: 0.55 mg/dL
GLUCOSE [3]: 164.5 mg/dL
PHOSPHORUS [3]: 11.45 mg/dL
POTASSIUM [3]: 6.45 MEQ/L
SODIUM [3]: 152 MEQ/L
TOTAL BILIRUBIN [3]: 0.3 mg/dL
TOTAL PROTEIN [3]: 6.2 G/DL
BASOPHIL [4]: 0%
EOSINOPHIL [4]: 0%
ERYTHROCYTE COUNT [4]: 5.99 x10E6/uL
HEMATOCRIT [4]: 36.17%
HEMOGLOBIN [4]: 14.4 G/DL
LEUKOCYTE COUNT [4]: 11.97 x10E3/uL
LYMPHOCYTE [4]: 88%
MEAN CORPUSCULAR HEMOGLOBIN [4]: 24.03 pg
MEAN CORPUSCULAR HEMOGLOBIN CONCENTRATION [4]: 39.8 G/DL
MEAN CORPUSCULAR VOLUME [4]: 60.4 fL
MONOCYTE [4]: 1.67%
NEUTROPHIL [4]: 10.33%
PLATELET COUNT [4]: 1118 x10E3/uL
ALANINE AMINOTRANSFERASE [4]: 39.67 u/L
ALBUMIN [4]: 3.6 G/DL
ALKALINE PHOSPHATASE [4]: 354.33 u/L
ASPARTATE AMINOTRANSFERASE [4]: 60.33 u/L
BLOOD UREA NITROGEN [4]: 14 mg/dL
CHLORIDE [4]: 104.67 MEQ/L
CHOLESTEROL [4]: 72 mg/dL
CREATINE PHOSPHOKINASE [4]: 115 u/L
CREATININE [4]: 0.53 mg/dL
GLUCOSE [4]: 172.33 mg/dL
PHOSPHORUS [4]: 10.87 mg/dL
POTASSIUM [4]: 6.93 MEQ/L
SODIUM [4]: 150.33 MEQ/L
TOTAL BILIRUBIN [4]: 0.3 mg/dL
TOTAL PROTEIN [4]: 5.93 G/DL
BASOPHIL [5]: 0%
EOSINOPHIL [5]: 0.67%
ERYTHROCYTE COUNT [5]: 5.98 x10E6/uL
HEMATOCRIT [5]: 36.83%
HEMOGLOBIN [5]: 14.37 G/DL
LEUKOCYTE COUNT [5]: 10.2 x10E3/uL
LYMPHOCYTE [5]: 87.33%
MEAN CORPUSCULAR HEMOGLOBIN [5]: 24.07 pg
MEAN CORPUSCULAR HEMOGLOBIN CONCENTRATION [5]: 39.03 G/DL
MEAN CORPUSCULAR VOLUME [5]: 61.67 fL
MONOCYTE [5]: 0.67%
NEUTROPHIL [5]: 11.33%
PLATELET COUNT [5]: 1408.33 x10E3/uL
ALANINE AMINOTRANSFERASE [5]: 45.67 u/L
ALBUMIN [5]: 3.63 G/DL
ALKALINE PHOSPHATASE [5]: 339 u/L
ASPARTATE AMINOTRANSFERASE [5]: 60.67 u/L
BLOOD UREA NITROGEN [5]: 14 mg/dL
CHLORIDE [5]: 107 MEQ/L
CHOLESTEROL [5]: 70 mg/dL
CREATINE PHOSPHOKINASE [5]: 137.33 u/L
CREATININE [5]: 0.5 mg/dL
GLUCOSE [5]: 170.33 mg/dL
PHOSPHORUS [5]: 10.57 mg/dL
POTASSIUM [5]: 6.17 MEQ/L
SODIUM [5]: 151.33 MEQ/L
TOTAL BILIRUBIN [5]: 0.3 mg/dL
TOTAL PROTEIN [5]: 6 G/DL
BASOPHIL [6]: 0%
EOSINOPHIL [6]: 0%
ERYTHROCYTE COUNT [6]: 7.06 x10E6/uL
HEMATOCRIT [6]: 43.27%
HEMOGLOBIN [6]: 16.87 G/DL
LEUKOCYTE COUNT [6]: 15.07 x10E3/uL
LYMPHOCYTE [6]: 82%
MEAN CORPUSCULAR HEMOGLOBIN [6]: 24 pg
MEAN CORPUSCULAR HEMOGLOBIN CONCENTRATION [6]: 39.07 G/DL
MEAN CORPUSCULAR VOLUME [6]: 61.43 fL
MONOCYTE [6]: 2.67%
NEUTROPHIL [6]: 15.33%
PLATELET COUNT [6]: 1202 x10E3/uL
ALANINE AMINOTRANSFERASE [6]: 39.67 u/L
ALBUMIN [6]: 3.77 G/DL
ALKALINE PHOSPHATASE [6]: 265.33 u/L
ASPARTATE AMINOTRANSFERASE [6]: 77 u/L
BLOOD UREA NITROGEN [6]: 20 mg/dL
CHLORIDE [6]: 111.33 MEQ/L
CHOLESTEROL [6]: 76.33 mg/dL
CREATINE PHOSPHOKINASE [6]: 139.33 u/L
CREATININE [6]: 0.6 mg/dL
GLUCOSE [6]: 166 mg/dL
PHOSPHORUS [6]: 11.47 mg/dL
POTASSIUM [6]: 7 MEQ/L
SODIUM [6]: 158.33 MEQ/L
TOTAL BILIRUBIN [6]: 0.27 mg/dL
TOTAL PROTEIN [6]: 6.3 G/DL
